Assay results: patent US5760036A, “Aminediol protease inhibitors” (E. R. Squibb & Sons, Inc., priority 1995, dated 1998)
Structures can show the parent of a compound that is named as a salt. Where two headings read alike, the source gives them in different places.

Target: T1, HIV protease (Human immunodeficiency virus type 1 group M subtype B, UniProt P04585)
T1 construct: and purified protease
Experiment: HIV Protease Assay
Format: biochemical
Details: for HIV Protease % Inhibition at 10 μM: 10 μM inhibitor
Procedure, shortened: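 At a single final concentration of 10 μM (4% DMSO), inhibitors were added to a 30-minute, 37° C reaction of purified enzyme with 450 μM H2N-Val-Ser-Gln-Asn-(β-naphthyl-alanine)-Pro-Val-Ile-OH at pH 5.5 (sodium acetate, BSA). Hydrolysis was quantified by reverse-phase HPLC with 220 nm detection after acid quench.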

[1] = 4% DMSO, 450 μM substrate, pH 5.5, 30 minutes at 37° C., RP-HPLC
[2] = pH 5.5, 10 μM inhibitor, 4% DMSO, 450 μM substrate, pH 5.5, 30 minutes at 37° C., RP-HPLC, read-out: HIV Protease % Inhibition at 10 μM
[3] = pH 5.5, read-out: HIV Protease % Inhibition at 10 μM

Row | SMILES | inhibition at 10 µM [2] [%] | other results
1 | CC(C)(C)OC(=O)N[C@@H](Cc1ccccc1)[C@H](O)CNC[C@@H](O)[C@H](Cc1ccccc1)NC(=O)C1NC(=O)CC1(C)C (single isomer, unassigned) [Compound 266, [1S-[1R*,2S*(2S*,3R*)]]-[3-[[3-[[(3,3-Dimethyl-5-oxo-2-pyrrolidinyl)carbonyl]amino]-2-hydroxy-4-phenylbutyl]amino]-2-hydroxy-1-(phenylmethyl)propyl]carbamic acid, 1,1-dimethylethyl ester] |  | HIV Protease % Inhibition at 10 μM [1]: 69%
2 | CC(C)(C)OC(=O)N[C@@H](Cc1ccccc1)[C@H](O)CNC[C@@H](O)[C@H](Cc1ccccc1)NC(=O)OC(C)(C)CCCN [Compound 180, [1S-(1R*,2S*)]-[Iminobis[2-hydroxy-1-(phenylmethyl)-3,1-propanediyl]biscarbamic acid, 4-amino-1,1-dimethylbutyl 1,1-dimethylethyl ester, fumarate (2:3) salt] | 73 | 
3 | CC(C)(C)OC(=O)N[C@@H](Cc1ccccc1)[C@H](O)CNC[C@@H](O)[C@H](Cc1ccccc1)NC(=O)C(C)(C)CO [Compound 279, [1S-[1R*,2S*(2S*,3R*)]]-[2-Hydroxy-3-[[2-hydroxy-3-[[2-(hydroxymethyl)-2-methyl-1-oxopropyl]amino]-4-phenylbutyl]amino]-1-(phenylmethyl)propyl]carbamic acid, 1,1-dimethylethyl ester] | 54 | 
4 | CC(C)(C)OC(=O)N[C@@H](Cc1ccccc1)[C@H](O)CNC[C@@H](O)[C@H](Cc1ccccc1)NC(=O)C1(O)CCCCC1(C)C (single isomer, unassigned; isomer b) [Compound 362, [1S-[1R*,2S*(2S*,3R*)]]-[3-[[3-[[2,2-Dimethyl-1-hydroxycyclohexyl)carbonyl]amino]-2-hydroxy-4-phenylbutyl]amino]-2-hydroxy-1-(phenylmethyl) propyl]carbamic acid, 1,1-dimethylethyl ester, isomer B] |  | HIV Protease % Inhibition at 10 μM [1]: 98%
5 | COC(=O)NC(C)(C(=O)N[C@@H](Cc1ccccc1)[C@H](O)CNC[C@@H](O)[C@H](Cc1ccccc1)NC(=O)OC(C)(C)C)C(C)(C)C (single isomer, unassigned; isomer a) [Compound 373] |  | HIV Protease % Inhibition at 10 μM [1]: 85%
6 | CC(C)(C)COC(=O)N[C@@H](Cc1ccccc1)[C@H](O)CNC[C@@H](O)[C@H](Cc1ccccc1)NC(=O)OCC(C)(C)C [Compound 139, [1S-(1R*,2S*)]-[Iminobis[2-hydroxy-1-(phenylmethyl)-3,1-propanediyl]]biscarbamic acid, bis(2,2-dimethylpropyl)ester] |  | inhibition at 10 µM [3]: 73%
7 | CC(C)(C)CCN[C@@H](Cc1ccccc1)[C@H](O)CNC[C@@H](O)[C@H](Cc1ccccc1)NC(=O)OC(C)(C)C [Compound 127, [1S-[1R*,2S*(2S*,3R*)]]-[3-[[3-[(3,3-Dimethylbutyl)amino]-2-hydroxy-4-phenylbutyl]amino]-2-hydroxy-1-(phenylmethyl)propyl]carbamic acid, 1,1-dimethylethyl ester] | 15 | 
8 | CC(C)C[C@H](NC(=O)OC(C)(C)C)C(O)CN(Cc1ccccc1)CC(O)[C@H](CC(C)C)NC(=O)OC(C)(C)C (stereo partly drawn) [Compound 196, (3S,3S')-[[(Phenylmethyl)nitrilo]-bis(2-hydroxy-5-methyl-3,1-hexandiyl)]-biscarbamic acid, bis(1,1-dimethylethyl)ester] | 6 | 
9 | CC(C)[C@H](NC(=O)OCc1ccccc1)C(=O)N[C@@H](Cc1ccccc1)[C@@H](O)CNC[C@H](O)[C@H](Cc1ccccc1)NC(=O)OC(C)(C)C [Compound 117, [S-[1R*,2R*(2R*,3R*)]]-N-[3-[[3-[[(1,1-Dimethylethoxy)carbonyl]amino]-2-hydroxy-4-phenylbutyl]amino]-2-hydroxy-1-(phenylmethyl)propyl]-N^2-[(phenylmethoxy)-carbonyl]-L-valinamide] | 14 | 
10 | CNC(=O)OC(C(=O)N[C@@H](Cc1ccccc1)[C@H](O)CNC[C@@H](O)[C@H](Cc1ccccc1)NC(=O)OC(C)(C)C)C(C)(C)C (stereo partly drawn) [Compound 287, [1S-[1R*,2S*(2S*,3R*)]]-[3-[[3-[[3,3-Dimethyl-2-[[(methylamino)carbonyl]oxy]-1-oxobutyl]amino]-2-hydroxy-4-phenylbutyl]amino]-2-hydroxy-1-(phenylmethyl)propyl]-carbamic acid, 1,1-dimethylethyl ester] | 89 | 
11 | CC(C)(C)OC(=O)N[C@@H](Cc1ccccc1)[C@H](O)CNC[C@@H](O)[C@H](Cc1ccccc1)NC(=O)OC(C)(C)CN [Compound 216, [1S-(1R*,2S*)]-[Iminobis[2-hydroxy-1-(phenylmethyl)-3,1-propanediyl]]biscarbamic acid. 2-amino-1,1-dimethylethyl-1,1-dimethylethyl ester] |  | inhibition at 10 µM [3]: 49%
12 | CC(C)(C)OC(=O)NCC(O)[C@H](Cc1ccccc1)NC[C@@H](O)[C@H](Cc1ccccc1)NC(=O)OC(C)(C)C (mixture of isomers) [Compound 188, [3S-[3R*(2S*,3R*)]]-[3-[[3-[[(1,1-Dimethylethoxy)carbonyl]amino]-2-hydroxy-4-phenyl-butyl]amino]-2-hydroxy-4-phenylbutyl]carbamic acid, 1,1-dimethylethyl ester, 2:1 diastereomer mixture] | 21 | 
13 | CC(C)(C)OC(=O)N1Cc2ccccc2C[C@H]1[C@@H](O)CNC[C@H](O)[C@@H]1Cc2ccccc2CN1C(=O)OC(C)(C)C [Compound 10, [S-(R*,R*)]-3,3'-[Iminobis(1-hydroxy-2,1-ethanediyl)]-bis[2(1H)-iso-quinolinecarboxylic acid], bis(1,1-dimethylethyl) ester] | 1 | 
14 | CC(C)(C)OC(=O)N[C@@H](Cc1ccccc1)[C@H](O)CNC[C@@H](O)[C@H](Cc1ccccc1)NC(=O)OCc1ncc[nH]1 [Compound 268, [R-(R*,S*)]-[Iminobis[2-hydroxy-1-(phenylmethyl)-3,1-propanediyl)]biscarbamic acid, (1H-imidazol-2-yl)-methyl 1,1-dimethylethyl ester] | 94 | 

Continued, in another order:

Row | inhibition at 10 µM [2] [%] | SMILES | other results
15 | 61 | CC(C)(C)OC(=O)N[C@@H](Cc1ccccc1)[C@H](O)CNC[C@@H](O)[C@H](Cc1ccccc1)N1CC(C)(C)OC1=O [Compound 140, [1S-[1R*,2S*(2S*,3R*)]]-[3-[[3-(5,5-Dimethyl-2-oxo-3-oxazolidinyl)-2-hydroxy-4-phenylbutyl]amino]-2-hydroxy-1-(phenylmethyl)-propyl]carbamic acid, 1,1-dimethylethyl ester] | 
16 | 84 | CC(C)(C)OC(=O)N[C@@H](Cc1ccccc1)[C@H](O)CNC[C@@H](O)[C@H](Cc1ccccc1)NC(=O)C(N)C(F)(F)F (stereo partly drawn) [Compound 329, [1S-[1R*,2S*(2S*,3R*)]]-[3-[[3-[[(1-Amino-2,2,2-trifluoroethyl)carbonyl]amino]-2-hydroxy-4-phenylbutyl]amino]-2-hydroxy-1-(phenylmethyl)propyl]carbamic acid, 1,1-dimethylethyl ester] | 
17 | 99 | CNC(=O)C(O)(C(=O)N[C@@H](Cc1ccccc1)[C@H](O)CNC[C@@H](O)[C@H](Cc1ccccc1)NC(=O)OC(C)(C)C)C(C)(C)C (single isomer, unassigned; isomer a) [Compound 384, [1S-[1R*,2S*(2S*, 3R*)]]-[3-[[3-[[2-Hydroxy-3,3-dimethyl-2-[(methylamino)carbonyl]-1-oxobutyl]amino]-2-hydroxy-4-phenylbutyl]amino]-2-hydroxy-1-(phenylmethyl)propyl]carbamic acid, 1,1-dimethylethyl ester, isomer A] | 
18 | 90 | CC(C)(C)OC(=O)N[C@@H](Cc1ccccc1)[C@H](O)CNC[C@@H](O)[C@H](Cc1ccccc1)NC(=O)OC(C)(C)COCc1ccccc1 [Compound 157, [1S-(1R*,2S*)]-[Iminobis[2-hydroxy-1-(phenylmethyl)-3,1-propanediyl)]biscarbamic acid, 1,1-dimethylethyl 1,1-dimethyl-2-(phenylmethoxy)-ethyl ester] | 
19 | 0 | CC(C)(C)OC(=O)N[C@@H](Cc1ccccc1)C(=O)CN(Cc1ccccc1)CC(O)[C@H](Cc1ccccc1)NC(=O)OC(C)(C)C (stereo partly drawn) [Compound 195, [1S-[1R*(3R*)]]-[3-[[3-[[(1,1-Dimethylethoxy)carbonyl]amino]-2-hydroxy-4-phenylbutyl]-(phenylmethyl)amino]-2-oxo-1-(phenylmethyl)propyl]-carbamic acid, 1,1-dimethylethyl ester] | 
20 | 11 | CC(C)(C)OC(=O)N[C@@H](Cc1ccccc1)[C@H](O)CNC[C@@H](O)[C@H](Cc1ccccc1)NC(=O)c1ccc2ccccc2n1 [Compound 65, [1S-[1R*,2S*(2S*,3R*)]]-[2-Hydroxy-3-[[2-hydroxy-4-phenyl-3-[(2-quinolinylcarbonyl)-amino]butyl]amino]-1-(phenylmethyl)propyl]carbamic acid, 1,1-dimethylethyl ester] | 
21 | 66 | CC(C)(C)OC(=O)N[C@@H](Cc1ccccc1)C(=O)CNC[C@@H](O)[C@H](Cc1ccccc1)NC(=O)OC(C)(C)C [Compound 193, [1S-[1R*,2S*(3R*)]]-[3-[[3-[[(1,1-Dimethylethoxy)carbonyl]amino]-2-oxo-4-phenylbutyl]amino]-2-hydroxy-1-(phenylmethyl)propyl]carbamic acid, 1,1-dimethylethyl ester] | 
22 | 47 | CC(C)(C)OC(=O)N[C@@H](Cc1ccccc1)C(=O)N[C@@H](Cc1ccccc1)[C@H](O)CNC[C@@H](O)[C@H](Cc1ccccc1)NC(=O)OC(C)(C)C [Compound 56, [S-[1R*,2S*(2S*,3R*)]-N^2-[(1,1-Dimethylethoxy)carbonyl]-N-[3-[[3-[[(1,1-dimethlethoxy)carbonyl]amino]-2-hydroxy-4-phenylbutyl]-amino]-2-hydroxy-1-(phenylmethyl)propyl]-L-phenylalaninamide] | 
